Laboratory results reported in publication PMC12254416, “The antimethanogenic efficacy and fate of bromoform and its transformation products in rumen fluid” (Scientific Reports, 2025).
“Also recorded” adds a separate entry of the source.

Legend:
[1] = Compound tracing incubation in live rumen fluid (biotic plus inhibitor, B+); format: in vitro ADME, Holstein cattle; conditions: for Rate constant, biological loss: difference between total loss (B+) and abiotic loss (AC+); for ½ life, biological loss: from difference of B+ and AC+ rates; for ½ life, loss (total, biotic incubation) / Rate constant, loss (total, biotic incubation): live rumen fluid B+, 40 °C; for Rate constant, loss (total, biotic incubation): compound added alone
Source text: (§1) Animals used in this study were cared for according to the guidelines of William H. Miner Agricultural Research Institute (Chazy, NY) Animal Care and Use Committee. Rumen fluid was collected by cannulation from four healthy, lactating Holstein cattle maintained on the same diet for five weeks with approval from the William H. Miner Agricultural Research Institute (Chazy, NY) Animal Care and Use Committee and in compliance with SOP#106.
(§2) Donor cow profiles and dietary information can be found in supplemental information (Table S1 and Table S2). Rumen samples were strained through four layers of cheesecloth, placed on ice and shipped overnight to Bigelow Laboratory for Ocean Sciences at weekly intervals for three consecutive weeks. Upon arrival, the four samples were combined under anaerobic conditions. Sub-samples of the rumen fluid blend were flash-frozen in liquid nitrogen and stored at −20 °C for later analysis of initial pH, ammonia (NH3), and volatile fatty acids (VFAs). The rumen fluid blend was kept air-tight, on ice at 4 °C until used for experimental incubations within four days[34],[35].
(§3) This study utilized an in vitro technique of directly incubating rumen fluid for short-term experiments (< 6 h). The in vitro experiments were performed in accordance with guidelines reviewed in Yáñez-Ruiz et al.[36]. In order to investigate the response to and transformation of methanogenesis inhibitors, experiments included combinations of the following treatment groups: (i) biotic control (BC): live rumen fluid containing no inhibitors, (ii) biotic plus inhibitor (B+): live rumen fluid containing an inhibitor, (iii) abiotic control plus inhibitor (AC+): rumen fluid sterilized by autoclave (121 °C, 15 psi for 1 h) and containing an inhibitor. Prior to the incubation experiments, 80 ml aliquots of blended rumen fluid were added to 120 ml glass serum bottles and sealed with PTFE septa under anaerobic conditions (80% nitrogen, 15% carbon dioxide, 5% hydrogen). Experiments consisted of a series of 15 to 18 bottles of the same batch of refrigerated rumen fluid incubated in parallel. To revive the microbial activity at the start of each experiment, the incubation bottles, including the killed controls, were brought to 40 °C in a recirculating water bath within 15 min. The bottles thermally equilibrated for another 30 min before the experiment was initiated. The experiment was initiated after headspace sampling (T0) and the designated treatment was added. The incubation proceeded for ~ 4–6 h at 40 °C.
(§4) Two experimental designs were run: i) compound tracing experiments, to investigate the lifetime and transformation of inhibitors; and ii) dose-response experiments, to determine the sensitivity of methanogenesis to inhibitors (Fig. 1). Dose-response experiments included biotic controls (BC), and a series of nine biotic plus inhibitor treatments (B+) across a range of concentrations (0 to 25 µM) containing the specific inhibitor (bromoform (Sigma-Aldrich 99%), dibromomethane (Sigma-Aldrich 99%), bromomethane (Supelco TraceCERT®), or Asparagopsis taxiformis. The A. taxiformis was collected fresh from a marine site in the subtropical Atlantic (27° 59’ 19”, −15° 22’ 12”) and stored frozen at −20 °C. The sample material contained 0.33 ± 0.02 mg bromoform g^−1 dry weight.
(§5) Tracing experiment treatments included biotic controls (BC), biotic plus inhibitors (B+), and abiotic plus inhibitors (AC+) of a single concentration of the target compound, each in triplicate. Target compounds bromoform, dibromomethane, and bromomethane, were injected through the septa as solutions in methanol (VWR 99.9%). The corresponding levels of methanol, which ranged from 30 to 950 µl, were added to the control treatments, depending on the desired inhibitor concentration. The A. taxiformis was cut into fine pieces, homogenized, pre-weighed into PTFE capsules and placed in the incubation bottles prior to incubation. […]

[2] = Compound tracing incubation in autoclaved rumen fluid (abiotic control plus inhibitor, AC+); format: in vitro ADME, Holstein cattle
Source text: as §1, §2, §3, §4, §5

[3] = tested on: CH4 production in rumen fluid; experiment: CH4 production in in vitro rumen fluid incubations (dose-response and single-dose inhibition); format: cell-based, Holstein cattle; conditions: for Concentration range of the dose response: CH4 production vs inhibitor concentration, for bromomethane the extent of the range; for Concentration at which the sigmoidal concentration-inhibition relationship occurred: abstract; for Time after addition to reduced CH4 production: bromoform addition, vs control; for CH4 production relative to the no treatment control: concentrations > 2 µmol l^−1; for maximum value of CH4 production (dose-response fit) / minimum value of CH4 production (dose-response fit): cumulative CH4 over 240 min, 80 ml rumen fluid; for maximum value of CH4 production (dose-response fit) / minimum value of CH4 production (dose-response fit) / EC50 / coefficient b of log-logistic dose-response curve: ± standard error; for EC50: cumulative CH4 over 240 min vs initial concentration, read-out: ec-50, 50 % inhibition of CH4 production; for coefficient b of log-logistic dose-response curve: cumulative CH4 production over 240 min vs initial inhibitor concentration
Source text: as §1, §2, §3, §4, §5

[4] = Loss to headspace volume estimated from Henry's Law solubility constants; format: physicochemical; conditions: based on Henry's Law solubility constants, during the incubations
Description: Based on the Henry’s Law solubility constants for bromoform and dibromomethane, loss to the headspace volume during the incubations would have amounted to < 5% of the dissolved pool of either compound and therefore, had minimal influence on estimated loss and turnover rates. In contrast, approximately 40% of any bromomethane produced during the tracing experiments may have been lost to the headspace gas sampling and may have contributed to the lack of evidence of bromomethane production.

[5] = set-up: method as in earlier work; conditions: incubation times up to 72 h; ref 33 Romero et al.; cited from earlier work
[6] = bromoform-amended live rumen fluid (Exp1)
[7] = bromoform-amended autoclaved rumen fluid (Exp1)

Row | SMILES | Rate constant, biological loss [1] | ½ life, biological loss [1] [min] | ½ life, loss (total, biotic incubation) [1] | Rate constant, loss (total, biotic incubation) [1] | ½ life, abiotic loss ([2]; autoclaved rumen fluid AC+) [min] | Concentration range of the dose response [3] [µmol/L] | Concentration at which the sigmoidal concentration-inhibition relationship occurred [3] [µM] | CH4 production relative to the no treatment control [3] [%] | maximum value of CH4 production (dose-response fit) [3] [µmol] | minimum value of CH4 production (dose-response fit) [3] [µmol] | EC50 [3] [nM] | coefficient b of log-logistic dose-response curve [3] | Loss to the headspace volume, share of the dissolved pool / of compound produced [4] | also measured
1 | BrC(Br)Br [bromoform] | -19.6 ± 1.2 x 10^-3min^-1 | 35 | ~ 26 min | -26.4 ± 1.3 x 10^-3min^-1 | 102 | 1 to 2 | 1 to 2 | < 20 | 681 ± 14 | 98 ± 16 | 1370 ± 30 | 5.98 ± 0.76 | < 5% | Loss rate in live rumen fluid relative to autoclaved control ([1]; B+ vs AC+): more than 3 fold; ½ life, loss (total, biotic incubation) ([1]; listed as Bromoform): 26 min; Rate constant, abiotic loss ([2]; autoclaved rumen fluid AC+, 40 °C): -6.8 ± 0.3 x 10^-3min^-1; Inhibition threshold for CH4 production [3]: ~ 1 µmol l^−1; CH4 inhibition vs biotic control ([3]; bromoform 3 µmol l^−1, after 260 min (Exp 4)): 78%; Time after addition to reduced CH4 production [3]: < 60 min; Time after addition to reduced CH4 production ([3]; listed as CHBr3): ≤ 60 min; Inhibition of CH4 production ([3]; total bromoform addition of 3 µmol l^−1, ~300 min (Exp 3)): > 75%
2 | CBr [bromomethane] | – | – | – | – | – | – | – | – | 616 ± 6 | 182 ± 7 | 5340 ± 140 | 3.09 ± 0.24 | approximately 40% | Production of bromomethane in incubations ([1]; tracing incubations, limit of detection 8 nmol l^−1): no bromomethane was detected; also recorded: not detected; also recorded: no detectable bromomethane production; Concentration required to achieve a maximal inhibitory effect ([3]; CH4 production dose response (Exp7)): > 20 µmol/L; EC50 relative to bromoform and dibromomethane ([3]; higher): ~5 fold
3 | BrCBr [dibromomethane] | -0.826 ± 0.113 x 10^-3min^-1 | 839 | 775 min | -0.894 ± 0.091 x 10^-3min^-1 | 10200 | 1 to 2 | 1 to 2 | < 20 | 763 ± 16 | 146 ± 8 | 1360 ± 30 | 7.46 ± 0.92 | < 5% | Peak dibromomethane as % of the highest observed bromoform, biotic ([1]; B + A.tax (Exp 4)): 22.0%; Peak level of dibromomethane after A. taxiformis addition, biotic ([1]; B + A.tax (Exp 4)): 0.076 ± 0.006 µmol/L; Dibromomethane production rate [1, 6]: 0.0353 ± 0.0024 µmol/L/min; Yield of dibromomethane, % of the initial bromoform added [1, 6]: 22.1%; Biotic loss slower than the loss of bromoform ([1]; dibromomethane vs bromoform, biotic): ~30 fold; Dibromomethane as % of the maximum bromoform concentrations, abiotic ([2]; AC + A.tax (Exp 4)): 1.3%; Dibromomethane at the end of the incubation after A. taxiformis addition, abiotic ([2]; AC + A.tax (Exp 4)): 0.030 ± 0.001 µmol/L; Dibromomethane abiotic production rate [2, 7]: 0.0014 ± 0.0001 µmol/L/min; Yield of dibromomethane, % of the initial bromoform added, abiotic [2, 7]: 3.4%; Yield of dibromomethane, % of the initial bromoform added, abiotic ([2]; bromoform-amended autoclaved rumen fluid (Exp1), listed as Dibromomethane): 3.4%; Dibromomethane produced as proportion of the degraded bromoform [5]: 20 to 40%
